Results from patent publication US8629103B2, “Treatment of non-proliferative cystic disease of the breast” (New York University, priority 2010, dated 2014).
Entries after “also recorded” stand apart in the source; their conditions may differ. Starred links: 1 amine or outer side, 2 acyl side, 3 side chain; linkers in the order of their positions; H or OH if unused. Non-standard residues stand in square brackets, D forms with d. Residues, ends and D or L forms follow the SMILES beside them. Groups on a side chain read outwards from the residue. *: point of attachment. Ethylenediamine = C(CN[*:2])N[*:1]; Hyp = O=C(O)[C@@H]1C[C@@H](O)CN1; Phg = N[C@H](C(=O)O)c1ccccc1; CO = O=C([*:1])[*:2]; Bn = c1ccc(C*)cc1

Key:
IGF-I receptor = IGF-I receptor (Homo sapiens, UniProt P08069); settings: cited from earlier work
IGF-I receptor, sequence (P08069 31-1367, species assumed): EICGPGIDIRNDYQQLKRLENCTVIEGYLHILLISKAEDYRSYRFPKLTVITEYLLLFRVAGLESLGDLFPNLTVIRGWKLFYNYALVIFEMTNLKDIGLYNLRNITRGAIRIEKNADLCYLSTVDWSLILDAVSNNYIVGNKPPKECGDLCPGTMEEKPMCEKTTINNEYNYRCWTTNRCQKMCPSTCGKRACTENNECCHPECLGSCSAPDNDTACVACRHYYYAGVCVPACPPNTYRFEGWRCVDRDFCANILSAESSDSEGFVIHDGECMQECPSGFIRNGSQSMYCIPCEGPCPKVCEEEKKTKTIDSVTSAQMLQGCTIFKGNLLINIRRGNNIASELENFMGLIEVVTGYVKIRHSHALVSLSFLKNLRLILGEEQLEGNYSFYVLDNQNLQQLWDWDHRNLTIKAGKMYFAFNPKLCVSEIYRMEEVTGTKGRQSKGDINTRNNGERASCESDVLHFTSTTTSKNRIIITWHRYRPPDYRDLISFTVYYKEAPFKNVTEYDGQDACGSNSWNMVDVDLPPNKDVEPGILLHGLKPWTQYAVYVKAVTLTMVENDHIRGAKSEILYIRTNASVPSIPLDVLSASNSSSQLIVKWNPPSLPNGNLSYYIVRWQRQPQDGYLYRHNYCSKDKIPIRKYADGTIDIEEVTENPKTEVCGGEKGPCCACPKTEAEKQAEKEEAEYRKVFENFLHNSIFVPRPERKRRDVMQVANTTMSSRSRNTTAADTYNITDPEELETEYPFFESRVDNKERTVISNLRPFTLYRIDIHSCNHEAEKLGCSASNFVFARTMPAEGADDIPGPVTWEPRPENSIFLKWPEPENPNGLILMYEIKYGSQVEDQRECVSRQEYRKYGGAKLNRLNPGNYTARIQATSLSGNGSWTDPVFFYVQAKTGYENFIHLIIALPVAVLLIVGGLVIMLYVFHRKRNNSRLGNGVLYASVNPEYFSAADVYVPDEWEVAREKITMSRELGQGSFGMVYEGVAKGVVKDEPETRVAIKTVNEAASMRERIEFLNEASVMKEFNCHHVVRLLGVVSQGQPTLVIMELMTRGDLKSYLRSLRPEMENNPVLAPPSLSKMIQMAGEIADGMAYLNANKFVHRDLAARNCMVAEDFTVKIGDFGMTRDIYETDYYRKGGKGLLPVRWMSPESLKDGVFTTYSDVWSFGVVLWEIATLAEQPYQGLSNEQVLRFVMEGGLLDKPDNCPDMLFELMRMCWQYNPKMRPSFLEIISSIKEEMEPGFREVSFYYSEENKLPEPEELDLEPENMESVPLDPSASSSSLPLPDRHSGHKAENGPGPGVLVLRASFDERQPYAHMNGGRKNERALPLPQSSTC

[1] = system: Ki67-positive epithelial cells in the mammary glands; test: Ki67 immunohistochemistry of mammary epithelial cells in treated Brca1LoxP/Brca1LoxP mice; assay type: in vivo; settings: 4 month old Brca1LoxP/Brca1LoxP mice; 7 days of treatment; vs vehicle
Text: The frequency of Ki67-positive mammary epithelial cells in C57Bl/6 controls treated with water (WT, water) is also presented. *, p<0.05 as compared with WT, water; **, p<0.01 as compared with WT, water; a, p<0.05 as compared with LoxP, water; b, p<0.01 as compared with LoxP, water.
The frequency of Ki67-positive mammary epithelial cells in C57Bl/6 controls treated with water (WT, water) is also presented. *, p<0.05 as compared with WT, water; **, p<0.01 as compared with WT, water; a, p<0.05 as compared with LoxP, water; b, p<0.01 as compared with LoxP, water. […] This finding is significant because Ki67 is a cancer antigen that is found in growing, dividing cells, but is absent in the resting phase of cell growth. Accordingly, Ki67 is viewed as a good tumor cell marker.

[2] = system: Brca1^LoxP/Brca1^LoxP mice; test: Mammary gland phenotype (whole mounts, hematoxylin-eosin sections, duct width, HANs) of treated Brca1LoxP/Brca1LoxP mice; assay type: in vivo; settings: for mammary gland phenotype (whole mounts, histology): 7 days; for width of mammary gland ducts / ductal dilatation: 10 μg/kg/h for 7 days by Alzet pump, vs vehicle (water)
Protocol: Representative whole mounts of mammary glands from 4 month old Brca1^LoxP/Brca1^LoxP females treated with water (upper photomicrographs) or 10 μg/kg/h pasireotide (lower photomicrographs) for 7 days. Both water and pasireotide were administered by Alzet pump Model 2001.
FIG. 8 depicts effects of pasireotide on the mammary gland phenotype of Brca1^LoxP/Brca1^LoxP mice. Representative hematoxylin-eosin sections of mammary glands from 4 month old Brca1^LoxP/Brca1^LoxP females treated with water (left) or pasireotide (center and right) for 7 days. Both water and pasireotide were administered by Alzet pump Model 2001. The dosage of pasireotide was 10 μg/kg/h.
FIG. 9 depicts effects of pasireotide on duct width of mammary glands of Brca1^LoxP/Brca1^LoxP mice. […] Both water and pasireotide were administered by Alzet pump Model 2001. Six animals were treated with pasireotide and five animals were treated with water (control). […]
The present inventor has made the surprising discovery that mice comprising loxP sites flanking exon 11 of the BRCA1 gene (formally known as Brca1^loxP/loxP, but also referred to herein as LoxP mice) display profoundly abnormal mammary gland development at an early age. LoxP mice were acquired from the National Institutes of Health Mouse Repository. The strain is Stock Brcal^tm2Cxd and the Strain code is 01XC8. Mice were maintained in accordance with the standards established by the Association for Assessment and Accreditation of Laboratory Animal Care (AAALAC) (New York University).
Representative whole mounts of mammary glands from 4 month old Brca1^LoxP/Brca1^LoxP females treated with water (upper photomicrographs) or 10 μg/kg/h pasireotide (lower photomicrographs) for 7 days are shown. Both water and pasireotide were administered by Alzet pump Model 2001. […] These findings were confirmed on a histological level as shown in FIG. 8 which depicts representative hematoxylin-eosin sections of mammary glands from 4 month old Brca1^LoxP/Brca1^LoxP females treated with water (left) or pasireotide (center and right) for 7 days. Both water and pasireotide (10 μg/kg/h) were administered by Alzet pump Model 2001. […] Both water and pasireotide were administered by Alzet pump Model 2001. […]

[3] = system: IGF-I receptor, ERK, and AKT; test: Western blots of phosphorylation of IGF-I receptor, ERK and AKT in treated Brca1LoxP/Brca1LoxP mice; assay type: in vivo; settings: 4 month old Brca1LoxP/Brca1LoxP females; 7 days; PQ401 100 mg/kg thrice a week intraperitoneal; pasireotide 10 μg/kg/h by Alzet pump
Protocol: Western blots showing that the increased phosphorylation of IGF-I receptor and its downstream mediators ERK and AKT in Brca1^LoxP/Brca1^LoxP females is reduced by treatment with 100 mg/kg PQ401 thrice a week and 10 μg/kg/h pasireotide. The two WT samples are from age-matched, untreated C57Bl/6 control mice. PQ401 was administered by intraperitoneal injections, pasireotide by Alzet pump Model 2001. For both drugs, the course of treatment was 7 days.
FIG. 6 depicts Western blots showing the effects of IGF-I inhibition on the phosphorylation of IGF-I receptor, ERK, and AKT in 4 month old Brca1^LoxP/Brca1^LoxP. The increased phosphorylation of IGF-I receptor and its downstream mediators ERK and AKT in Brca1^LoxP/Brca1^LoxP females is reduced by treatment with 100 mg/kg PQ401 thrice a week and 10 μg/kg/h pasireotide. The two WT samples are from age-matched, untreated C57Bl/6 control mice. PQ401 was administered by intraperitoneal injections, pasireotide by Alzet pump Model 2001. For both drugs, the course of treatment was 7 days.

somatostatin receptors = settings: cited from earlier work; for somatostatin receptors bound: of the 5 somatostatin receptors
[4] = system: mammary development in rats; settings: Ruan et al. 2006; cited from earlier work
[5] = system: growth hormone and estradiol induced mammary hyperplasia; settings: Kleinberg et al. 2011; cited from earlier work
breast cancer = settings: women with certain hyperplastic lesions of the breast; clinical evidence; cited from earlier work
[6] = 4 month old Brca1LoxP/Brca1LoxP females, pasireotide 10 μg/kg/h Alzet pump vs water, PQ401 intraperitoneal vs 8% ethanol/Tween 80 in PBS

Molecule: COc1ccc(Cl)cc1NC(=O)Nc1cc(C)nc2ccccc12 [PQ401]
- IGF-I receptor inhibition (IGF-I receptor): very potent and specific
- Ki67-positive epithelial cells in the mammary glands (cell proliferation) [1]: reduces; also recorded: significantly reduced
- mammary gland phenotype (whole mounts, histology) [2, 6]: dramatically reduces
- phosphorylation of IGF-I receptor and its downstream mediators ERK and AKT [3]: reduced

Molecule: NCCCC[C@@H]1NC(=O)[C@@H](Cc2c[nH]c3ccccc23)NC(=O)[C@H](c2ccccc2)NC(=O)[C@@H]2C[C@@H](OC(=O)NCCN)CN2C(=O)[C@H](Cc2ccccc2)NC(=O)[C@H](Cc2ccc(OCc3ccccc3)cc2)NC1=O [pasireotide] (cyclo([Hyp]([CO-Ethylenediamine])[Phg][dW]KY(Bn)F))
- Ki67-positive epithelial cells in the mammary glands (cell proliferation) [1]: reduces; also recorded: significantly reduced
- affinity for SSTR3 and/or SSTR5 receptors (somatostatin receptors): has affinity
- somatostatin receptors bound (somatostatin receptors): 4 of the 5
- width of mammary gland ducts / ductal dilatation ([2]; 4 month old Brca1LoxP/Brca1LoxP females): effective in decreasing
- width of mammary gland ducts / ductal dilatation ([2]; 4 month old Brca1LoxP/Brca1LoxP females, listed as SOM230): significant effect on inhibiting; also recorded: significantly reduced
- mammary gland phenotype (whole mounts, histology) [2, 6]: dramatically reduces
- formation of HANs (hyperplastic alveolar nodules) ([2]; LoxP mice at 4 months of age treated with SOM230): preventing
- number of ducts ([2]; affected LoxP animals, SOM230 or control vehicle for 1 week): unchanged
- phosphorylation of IGF-I receptor and its downstream mediators ERK and AKT [3]: reduced
- IRS-1 phosphorylation in the mammary gland (IGF-I action) [4]: reduction
- growth hormone secretion from the pituitary [4]: inhibitory effect
- mammary development [4]: prevents
- efficacy compared with tamoxifen in preventing growth hormone and estradiol-induced mammary hyperplasia [5]: at least as effective as tamoxifen
- growth hormone and estradiol induced mammary hyperplasia [5]: prevents

Molecule: CC/C(=C(\c1ccccc1)c1ccc(OCCN(C)C)cc1)c1ccccc1 [tamoxifen]
- prevention of the development of cancer (breast cancer): about 50%
- growth hormone and estradiol induced mammary hyperplasia [5]: prevent

Molecule: somatostatin-14 [SS-14]
- somatostatin receptors bound (somatostatin receptors): all
- mammary gland phenotype (whole mounts, histology) ([2]; 9 month old Brca1LoxP/Brca1LoxP females, Alzet pump, vs water): reduces
- number of HANs ([2]; nine month old LoxP animals treated for a week): impressive reduction
